The results in this text go back to patent US12312334B2, “Quinoxaline compounds and uses thereof” (BOARD OF REGENTS OF THE UNIVERSITY OF NEBRASKA, priority 2017, dated 2025).

Series [1] relates to TNFα induced NFκB transcription activity. The series can be described thus: cell-based TNFα induced IKKβ mediated NFκB activation luciferase reporter assay. More on the design: TNFα induced NFκB transcription activity % Inhibition: concentration or dose not given beside the values. From the text:
Compound 13-197 has a structure:

The subject of series [2] is HCT116. The series can be described thus: growth inhibition assay, colon cancer cell line HCT116. It is filed as cell-based. To be noted: Homo sapiens, HCT-116.
The subject of series [3] is SW620. The experiment in a line: growth inhibition assay, colon cancer cell line SW620. To be noted: Homo sapiens, SW-620. In kind it is cell-based.
Series [4] relates to HT29. The experiment in a line: growth inhibition assay, colon cancer cell line HT29. To be noted: Homo sapiens, HT-29. It is filed as cell-based.
Series [5] concerns DLD1. The experiment in a line: growth inhibition assay, colon cancer cell line DLD1. To be noted: Homo sapiens, DLD-1. In kind it is cell-based.
For series [6], the system named is MiaPaCa2. The series can be described thus: growth inhibition assay, pancreatic cancer cell line MiaPaCa2. It is filed as cell-based. To be noted: Homo sapiens, MIA PaCa-2.
The subject of series [7] is AsPC1. The experiment in a line: growth inhibition assay, pancreatic cancer cell line AsPC1. In kind it is cell-based. To be noted: Homo sapiens.
Series [8] has as its system Suit2. The experiment in a line: growth inhibition assay, pancreatic cancer cell line Suit2. To be noted: SUIT-2. It is filed as cell-based.
Series [9] deals with S2013. The experiment in a line: growth inhibition assay, pancreatic cancer cell line S2013. In kind it is cell-based.
The nature of series [10]: in-vitro metabolic stability in human liver S9 fraction. In kind it is in vitro ADME. To be noted: for microsomal CLint / half-life: human liver S-9 fraction; for microsomal CLint: read-out: intrinsic clearance. The protocol: (§1) A metabolic stability profile, as well as oral and intravenous dose pharmacokinetics in mice was characterized. The in-vitro metabolic stability of 39-100 was determined using human liver S9 fraction (XenoTech, LLC, USA). 7-hydroxycoumarin (glucuronidation and sulphation) and testosterone (CYP hydroxylation) were used as positive controls for in-vitro metabolic stability study. The oral and intravenous dose pharmacokinetic studies were performed in Balb/c mice. The oral dose of 39-100 was 10 mg/kg, and the intravenous dose was 1 mg/kg. Sample analysis was performed by liquid chromatography-tandem mass spectrometry (SCIEX QTRAP 4000 LC-MS/MS System). For metabolite identification, samples were acquired by MRM-information dependent acquisition-enhanced product ion (MRM-IDA-EPI) scans, enhanced mass spectrometry-IDA-EPI scans, neutral loss, and precursor ion scan methods. Metabolites of 39-100 were characterized by Analyst 1.6.2, LightSight 2.3.1, and ChemDraw Professional-15 software.

Series [11] in a line: oral and intravenous dose pharmacokinetics in mice. It is filed as in vivo, Balb/c mice. To be noted: for MRT inf: read-out: MRT 0-∞. The protocol: as §1
Series [12] deals with HCT116 cancer cells. The experiment in a line: HCT116 colon tumor xenograft growth inhibition study. It is filed as in vivo. As to conditions: HCT116 xenograft in athymic mice, 40 mg/kg for 2 weeks, preliminary results. The protocol:
Colon tumor xenografts were established in immune deficient (athymic: 4-6 weeks old) mice. Briefly, exponentially growing (70-80% confluent) HCT116 cancer cells were trypsinized, counted using a hemocytometer and stained with trypan blue to ensure only healthy cells are counted. Cells in suspension were added to matrigel and 4×10^6 cells/100 μl of volume were injected into the flanks of mice. Post-injection, mice were monitored on a daily basis to determine tumor growth. The tumor onset and progression was examined through palpation. Tumor diameter was measured using digital calipers and the tumor volume (in mm^3) was calculated using the formula=(width)^2×length/2. Mice were randomly separated into two groups and were dosed with either vehicle or 40 mg/kg of 39-100 for 2 weeks.

Setting [13] is: Balb/c, mouse, plasma, Oral: 10 mg/kg.

Structures are written as SMILES. Where two headings read alike, the source gives them in different places.

For the compound `Cn1cc(-c2cnc3ccc(NC(=O)Nc4cccc(Br)c4)cc3n2)cn1` [39-086], in [1], the “TNFα induced NFκB transcription activity % Inhibition” value is on record as 88.9 ± 1.8%.

As for `Cc1nn(C)cc1-c1cnc2ccc(NC(=O)Nc3ccc(Br)cc3)cc2n1` [39-077], the “TNFα induced NFκB transcription activity % Inhibition” value in [1] is 37.7 ± 5.1%.

Turning to `Cn1cc(-c2cnc3ccc(NC(=O)Nc4ccc(Br)cc4)cc3n2)cn1` [39-055], the “TNFα induced NFκB transcription activity % Inhibition” value in series [1] came out at 71.0 ± 4.8%.

On to `COc1cc(NC(=O)Nc2ccc3ncc(-c4cnn(C)c4)nc3c2)ccc1F` [42-078], for which the “TNFα induced NFκB transcription activity % Inhibition” value in series [1] amounted to 33.5 ± 3.7%.

`Cn1cc(-c2cnc3cc(NC(=O)Nc4ccc(Br)cc4)ccc3n2)cn1` [39-061]: in series [1], the “TNFα induced NFκB transcription activity % Inhibition” value turned out to be 40.7 ± 2.9%.

With `Cc1cc(NC(=O)Nc2ccc3ncc(-c4cnn(C)c4)nc3c2)ccc1F` [42-074], in series [1], the “TNFα induced NFκB transcription activity % Inhibition” value was 10.4 ± 3.9%.

As to `Cn1cc(-c2cnc3ccc(NC(=O)Nc4ccc5c(c4)OCCO5)cc3n2)cn1` [42-073], the “TNFα induced NFκB transcription activity % Inhibition” value in series [1] is “inactive”.

As to `Cn1cc(-c2cnc3ccc(NC(=O)Cc4ccc(Br)cc4)cc3n2)cn1` [39-076], the “TNFα induced NFκB transcription activity % Inhibition” value in series [1] was 36.1 ± 8.8%.

As to `Cn1cc(-c2cnc3ccc(NC(=O)Nc4ccc(F)c(Cl)c4)cc3n2)cn1` [42-065], in series [1], the “TNFα induced NFκB transcription activity % Inhibition” value worked out at 85.3 ± 2.8%.

As to `COc1cccc(NC(=O)Nc2ccc3ncc(-c4cnn(C)c4)nc3c2)c1` [42-076], in series [1], the “TNFα induced NFκB transcription activity % Inhibition” value is reported as 49.7 ± 2.6%.

As for `Cc1ccc(NC(=O)Nc2ccc3ncc(-c4cnn(C)c4)nc3c2)cc1` [39-085], the “TNFα induced NFκB transcription activity % Inhibition” value in series [1] is 53.0 ± 2.9%.

Consider `Cn1cc(-c2cnc3ccc(NC(=O)Nc4cccc(OC(F)(F)F)c4)cc3n2)cn1` [42-81B], for which the “TNFα induced NFκB transcription activity % Inhibition” value in [1] amounted to 60.9 ± 2.9%.

For the compound `Cn1cc(-c2cnc3ccc(NC(=O)Nc4cccc(Cl)c4)cc3n2)cn1` [42-064], the “TNFα induced NFκB transcription activity % Inhibition” value in series [1] amounted to 96.3 ± 1.5%.

With `Cn1ccc(-c2cnc3cc(NC(=O)Nc4ccc(Br)cc4)ccc3n2)n1` [39-072], in series [1], the “TNFα induced NFκB transcription activity % Inhibition” value came out at 46.8 ± 4.4%.

In the case of `Cn1cc(-c2cnc3ccc(NC(=O)Nc4ccc(F)c(OC(F)(F)F)c4)cc3n2)cn1` [42-096], in series [1], the “TNFα induced NFκB transcription activity % Inhibition” value came out at 64.6 ± 3.3%.

With `Cn1cc(-c2cnc3ccc(NC(=O)Nc4ccc(F)c(C(F)(F)F)c4)cc3n2)cn1` [42-062], in series [1], the “TNFα induced NFκB transcription activity % Inhibition” value is reported as 83.7 ± 0.3%.

As to `Cn1cc(-c2cnc3ccc(NC(=O)Nc4ccccc4)cc3n2)cn1` [39-071], the “TNFα induced NFκB transcription activity % Inhibition” value in series [1] was found to be 31.2 ± 7.6%.

As to `Cn1cc(-c2cnc3ccc(NC(=O)Nc4ccc(F)cc4)cc3n2)cn1` [39-066], the “TNFα induced NFκB transcription activity % Inhibition” value in series [1] was 42.9 ± 9.8%.

Turning to `Cn1cc(-c2cnc3ccc(NC(=O)Nc4ccccc4Br)cc3n2)cn1` [39-102], in series [1], the “TNFα induced NFκB transcription activity % Inhibition” value is 62.4 ± 1.2%.

In the case of `O=C(Nc1ccc(Br)cc1)Nc1ccc2nc(-c3ccco3)c(-c3ccco3)nc2c1` [13-197, reference compound], the “TNFα induced NFκB transcription activity % Inhibition” value in [1] worked out at 32.9 ± 3.4%. In addition, the GI50 in series [2] is 8.8 ± 2.2 µM; in [3] it was 9.2 ± 2.5 µM; in series [4], 6.7 ± 1 µM; in series [5], 10.9 ± 2.1 µM; in series [6] it was 10 ± 2.2 µM; in series [7] it was 12 ± 4 µM. In addition, the GI50 in series [8] came out at 10.7 ± 0.5 µM; in [9], 9.1 ± 1.1 µM. The microsomal CLint in series [10] (human liver S9 fraction) turned out to be 12.2 µL/min/mg. The half-life in series [10] was found to be 0.95 h.

Turning to `Cn1ccc(-c2cnc3ccc(NC(=O)Nc4ccc(Br)cc4)cc3n2)n1` [39-062], the “TNFα induced NFκB transcription activity % Inhibition” value in series [1] amounted to 33.0 ± 5.7%.

As for `Cn1cc(-c2cnc3ccc(NC(=O)Nc4ccc5c(c4)OCO5)cc3n2)cn1` [42-072], in [1], the “TNFα induced NFκB transcription activity % Inhibition” value is “inactive”.

Consider `Cn1cc(-c2cnc3ccc(NC(=O)Nc4ccc(F)c(Br)c4)cc3n2)cn1` [39-100], for which the “TNFα induced NFκB transcription activity % Inhibition” value in series [1] came out at 83.8 ± 1.6%. The “potency relative to 13-197” value in series [1] (all the assays tested (FIG. 1 and FIG. 2)) was “more potent than 13-197”. The GI50 in [2] is 3.8 ± 1.2 µM; in series [3], 8.4 ± 2.3 µM; in series [4], 3.1 ± 0.2 µM; in series [5], 8.4 ± 2.3 µM; in series [6] it was 3.2 ± 0.3 µM; in series [7], 7.2 ± 2.6 µM. Also, the GI50 in series [8] was 4.5 ± 0.4 µM; in series [9], 4.1 ± 0.5 µM. In addition, in series [10] (human liver S9 fraction, 60-minute incubation), the parent compound present entry is reported as “More than 85%”. In addition, the microsomal CLint in [10] (human liver S9 fraction) amounted to 1.59 µL/min/mg. Also, the half-life in series [10] was 7.273 h; in series [11] (Balb/c, mouse, plasma, IV: 1 mg/kg, read-out: t0.5 (elimination half-life) (converted)), 3.9 h. The metabolites detected result in [10] (metabolite identification by LC-MS/MS, matrix not stated) is “In very small fraction glucuronidation, sulfonation, and demethylation”. The MRT inf in series [11] (Balb/c, mouse, plasma, IV: 1 mg/kg) was 1.4 h; in [11] (setting [13]) it was 3.9 h. This compound also showed an exposure AUC(0-t) in series [11] (setting [13]) of 12400 ng·h/mL. Besides, the CL/F in series [11] (setting [13]) was 13.3 mL/min/kg. Further, in series [11] (setting [13]), the peak level (Cmax) was 2330 ng/mL. Further, in [11] (setting [13]), the Tmax stood at 2 h. Further, the bioavailability in series [11] (Balb/c, mouse, plasma, Oral: 10 mg/kg vs IV: 1 mg/kg) amounted to 208%. Besides, the AUC(0-inf) worked out at 598 ng·h/mL in [11] (Balb/c, mouse, plasma, intravenous dose 1 mg/kg, read-out: area under the curve (AUC0-∞)) and 12400 ng·h/mL in series [11] (Balb/c, mouse, plasma, oral administration 10 mg/kg, read-out: AUC0-∞). Also, the MRT in series [11] (Balb/c, mouse, plasma, intravenous dose 1 mg/kg, read-out: mean residence time (MRT)) is 1.4 h; in [11] (Balb/c, mouse, plasma, oral administration 10 mg/kg, read-out: MRT), 3.9 h. In series [11] (IV: 1 mg/kg), the C0-iv was 709.9 ng/mL. In series [11] (IV: 1 mg/kg), the “CL/F (clearance)” value was 27.8 mL/min/kg. For the same compound, the λZ stood at 0.177 h⁻¹ in [11] (IV: 1 mg/kg) and 0.295 h⁻¹ in [11] (Oral: 10 mg/kg). This compound also gave a t0.5 in series [11] (Oral: 10 mg/kg) of 2.35 h. The colon tumor growth entry in series [12] was “reduced colon tumorgrowth”.

Take `Cn1cc(-c2cnc3ccc(NC(=O)Nc4ccc([N+](=O)[O-])cc4)cc3n2)cn1` [39-084]: the “TNFα induced NFκB transcription activity % Inhibition” value in series [1] amounted to 36.4 ± 6.3%.

As for `Cn1cc(-c2cnc3ccc(NC(=O)Nc4ccc5c(c4)CCO5)cc3n2)cn1` [42-097], the “TNFα induced NFκB transcription activity % Inhibition” value in [1] is “inactive”.

In the case of `Cn1cc(-c2cnc3ccc(NC(=O)Nc4ccc5sccc5c4)cc3n2)cn1` [42-077], in series [1], the “TNFα induced NFκB transcription activity % Inhibition” value was “inactive”.

For the compound `O=C(Nc1ccc(Br)cc1)Nc1ccc2ncc(-c3cn[nH]c3)nc2c1` [39-09D], the “TNFα induced NFκB transcription activity % Inhibition” value in [1] came out at 48.4 ± 2.8%.

On to `Cn1cc(-c2cnc3ccc(NC(=O)Nc4cccc(C(F)(F)F)c4)cc3n2)cn1` [42-071], for which the “TNFα induced NFκB transcription activity % Inhibition” value in series [1] was 80.5 ± 2.5%.

Turning to `Cc1cccc(NC(=O)Nc2ccc3ncc(-c4cnn(C)c4)nc3c2)c1` [42-066], in series [1], the “TNFα induced NFκB transcription activity % Inhibition” value was “Inactive”.

In the case of `Cn1cc(-c2cnc3ccc(NC(=O)Nc4ccc5c(c4)CCC5)cc3n2)cn1` [42-091], the “TNFα induced NFκB transcription activity % Inhibition” value in series [1] was “inactive”.
